Experimental data: the CheMixHub viscosity set
Several values for one entry are separate records, joined by “and”; a condition that tells them apart may be missing. Identical values can stand only once.

Experiment: xn = mol fraction of the nth substance listed

Nc1ccccc1 + C1CCCCC1
Details | viscosity
301.05 K, 101.32 kPa, x1 = 0.7073 | 1.9 mPa·s
301.92 K, 101 kPa, x1 = 0.238 | 1.083 mPa·s
302.2 K, 101 kPa, x1 = 0.592 | 1.621 mPa·s
302.46 K, 101 kPa, x1 = 0.745 | 1.893 mPa·s
302.5 K, 101 kPa, x1 = 0.63 | 1.651 mPa·s
302.66 K, 101 kPa, x1 = 0.71 | 1.798 mPa·s
302.76 K, 101 kPa, x1 = 0.337 | 1.185 mPa·s
303 K, 101 kPa, x1 = 0.442 | 1.643 mPa·s and 1.611 mPa·s
303.02 K, 101 kPa, x1 = 0.442 | 1.57 mPa·s
303.08 K, 101 kPa, x1 = 0.39 | 1.305 mPa·s
303.09 K, 101 kPa, x1 = 0.442 | 1.539 mPa·s
303.12 K, 101 kPa, x1 = 0.592 | 1.574 mPa·s
303.15 K, 101 kPa, x1 = 0.442 | 1.496 mPa·s
303.15 K, 101.32 kPa, x1 = 0.7073 | 1.79 mPa·s
303.22 K, 101 kPa, x1 = 0.442 | 1.458 mPa·s
303.26 K, 101 kPa, x1 = 0.745 | 1.847 mPa·s
303.35 K, 101 kPa, x1 = 0.442 | 1.419 mPa·s
303.39 K, 101 kPa, x1 = 0.39 | 1.275 mPa·s
303.58 K, 101 kPa, x1 = 0.492 | 1.434 mPa·s
303.61 K, 101 kPa, x1 = 0.442 | 1.386 mPa·s
303.68 K, 101 kPa, x1 = 0.41 | 1.31 mPa·s
303.76 K, 101 kPa, x1 = 0.442 | 1.366 mPa·s
303.9 K, 101 kPa, x1 = 0.442 | 1.353 mPa·s
303.92 K, 101 kPa, x1 = 0.39 | 1.238 mPa·s
304.07 K, 101 kPa, x1 = 0.592 | 1.531 mPa·s
304.09 K, 101 kPa, x1 = 0.745 | 1.808 mPa·s
304.1 K, 101 kPa, x1 = 0.442 | 1.335 mPa·s
304.25 K, 101 kPa, x1 = 0.71 | 1.731 mPa·s
304.32 K, 101 kPa, x1 = 0.543 | 1.452 mPa·s
304.38 K, 101 kPa, x1 = 0.442 | 1.32 mPa·s
304.39 K, 101 kPa, x1 = 0.337 | 1.109 mPa·s
304.42 K, 101 kPa, x1 = 0.39 | 1.215 mPa·s
304.51 K, 101 kPa, x1 = 0.523 | 1.41 mPa·s
304.53 K, 101 kPa, x1 = 0.492 | 1.373 mPa·s
304.56 K, 101 kPa, x1 = 0.63 | 1.546 mPa·s
304.58 K, 101 kPa, x1 = 0.442 | 1.302 mPa·s
304.59 K, 101 kPa, x1 = 0.41 | 1.244 mPa·s
304.64 K, 101 kPa, x1 = 0.462 | 1.334 mPa·s
304.75 K, 101.32 kPa, x1 = 0.5628 | 1.51 mPa·s
304.99 K, 101 kPa, x1 = 0.442 | 1.281 mPa·s
305.01 K, 101 kPa, x1 = 0.745 | 1.77 mPa·s
305.05 K, 101.32 kPa, x1 = 0.5628 | 1.48 mPa·s
305.17 K, 101 kPa, x1 = 0.71 | 1.693 mPa·s
305.24 K, 101 kPa, x1 = 0.442 | 1.268 mPa·s
305.41 K, 101 kPa, x1 = 0.39 | 1.169 mPa·s
305.51 K, 101 kPa, x1 = 0.592 | 1.466 mPa·s
305.83 K, 101 kPa, x1 = 0.745 | 1.737 mPa·s
305.91 K, 101 kPa, x1 = 0.442 | 1.236 mPa·s
306.15 K, 101.32 kPa, x1 = 0.7073 | 1.65 mPa·s
306.28 K, 101 kPa, x1 = 0.337 | 1.051 mPa·s
306.33 K, 101 kPa, x1 = 0.462 | 1.247 mPa·s
306.36 K, 101 kPa, x1 = 0.442 | 1.216 mPa·s
306.36 K, 101 kPa, x1 = 0.492 | 1.292 mPa·s
306.37 K, 101 kPa, x1 = 0.543 | 1.363 mPa·s
306.39 K, 101 kPa, x1 = 0.63 | 1.481 mPa·s
306.5 K, 101 kPa, x1 = 0.523 | 1.328 mPa·s
306.54 K, 101 kPa, x1 = 0.41 | 1.163 mPa·s
306.88 K, 101 kPa, x1 = 0.71 | 1.624 mPa·s
307.09 K, 101 kPa, x1 = 0.745 | 1.683 mPa·s
307.11 K, 101 kPa, x1 = 0.442 | 1.192 mPa·s
307.79 K, 101 kPa, x1 = 0.592 | 1.39 mPa·s
307.84 K, 101 kPa, x1 = 0.442 | 1.159 mPa·s
308.04 K, 101 kPa, x1 = 0.492 | 1.235 mPa·s
308.08 K, 101 kPa, x1 = 0.745 | 1.642 mPa·s
308.26 K, 101 kPa, x1 = 0.41 | 1.103 mPa·s
308.28 K, 101 kPa, x1 = 0.39 | 1.07 mPa·s
308.35 K, 101 kPa, x1 = 0.337 | 0.993 mPa·s
308.35 K, 101 kPa, x1 = 0.462 | 1.172 mPa·s
308.36 K, 101 kPa, x1 = 0.543 | 1.292 mPa·s
308.41 K, 101 kPa, x1 = 0.63 | 1.409 mPa·s
308.43 K, 101 kPa, x1 = 0.523 | 1.261 mPa·s
309.04 K, 101 kPa, x1 = 0.745 | 1.609 mPa·s
309.11 K, 101 kPa, x1 = 0.442 | 1.122 mPa·s
309.15 K, 101.32 kPa, x1 = 0.7073 | 1.53 mPa·s
309.4 K, 101 kPa, x1 = 0.592 | 1.324 mPa·s
309.69 K, 101 kPa, x1 = 0.71 | 1.52 mPa·s
309.88 K, 101 kPa, x1 = 0.492 | 1.169 mPa·s
310.04 K, 101 kPa, x1 = 0.745 | 1.57 mPa·s
310.08 K, 101 kPa, x1 = 0.543 | 1.234 mPa·s
310.21 K, 101 kPa, x1 = 0.337 | 0.953 mPa·s
310.23 K, 101 kPa, x1 = 0.41 | 1.047 mPa·s
310.32 K, 101 kPa, x1 = 0.442 | 1.09 mPa·s
310.32 K, 101 kPa, x1 = 0.462 | 1.117 mPa·s
310.41 K, 101 kPa, x1 = 0.523 | 1.2 mPa·s
310.49 K, 101 kPa, x1 = 0.63 | 1.345 mPa·s
311.23 K, 101 kPa, x1 = 0.745 | 1.534 mPa·s
311.28 K, 101 kPa, x1 = 0.592 | 1.258 mPa·s
311.35 K, 101 kPa, x1 = 0.39 | 0.995 mPa·s
311.37 K, 101 kPa, x1 = 0.442 | 1.063 mPa·s
311.64 K, 101 kPa, x1 = 0.492 | 1.12 mPa·s
311.89 K, 101 kPa, x1 = 0.523 | 1.16 mPa·s
311.98 K, 101 kPa, x1 = 0.71 | 1.439 mPa·s
311.98 K, 101 kPa, x1 = 0.745 | 1.501 mPa·s
312.01 K, 101 kPa, x1 = 0.462 | 1.067 mPa·s
312.07 K, 101 kPa, x1 = 0.41 | 1.004 mPa·s
312.11 K, 101 kPa, x1 = 0.337 | 0.919 mPa·s
312.18 K, 101 kPa, x1 = 0.63 | 1.289 mPa·s
312.19 K, 101 kPa, x1 = 0.543 | 1.174 mPa·s
312.2 K, 101 kPa, x1 = 0.442 | 1.042 mPa·s

CCC(O)CO (stereo not given) + O
viscosity, 101 kPa
Details | 293.15 K | 298.15 K | 303.15 K | 308.15 K | 313.15 K | 318.15 K | 323.15 K
x1 = 0.005 | 1.087 mPa·s | 0.964 mPa·s | 0.865 mPa·s | 0.783 mPa·s | – | – | –
x1 = 0.0099 | – | – | 0.935 mPa·s | 0.838 mPa·s | 0.756 mPa·s | 0.687 mPa·s | 0.628 mPa·s
x1 = 0.01 | 1.188 mPa·s | 1.034 mPa·s | 0.919 mPa·s | 0.824 mPa·s | – | – | –
x1 = 0.015 | 1.285 mPa·s | 1.129 mPa·s | 0.978 mPa·s | – | – | – | –
x1 = 0.02 | 1.372 mPa·s | 1.204 mPa·s | 1.099 mPa·s and 1.052 mPa·s | 0.976 mPa·s | 0.874 mPa·s | 0.789 mPa·s | 0.716 mPa·s
x1 = 0.0299 | – | – | 1.268 mPa·s | 1.117 mPa·s | 0.993 mPa·s | 0.89 mPa·s | 0.802 mPa·s
x1 = 0.0401 | – | – | 1.459 mPa·s | 1.275 mPa·s | 1.126 mPa·s | 1.002 mPa·s | 0.9 mPa·s
x1 = 0.0496 | – | – | 1.639 mPa·s | 1.422 mPa·s | 1.247 mPa·s | 1.104 mPa·s | 0.986 mPa·s
x1 = 0.0599 | – | – | 1.856 mPa·s | 1.599 mPa·s | 1.394 mPa·s | 1.229 mPa·s | 1.092 mPa·s
x1 = 0.0701 | – | – | 2.073 mPa·s | 1.776 mPa·s | 1.54 mPa·s | 1.351 mPa·s | 1.193 mPa·s
x1 = 0.0799 | – | – | 2.279 mPa·s | 1.944 mPa·s | 1.679 mPa·s | 1.467 mPa·s | 1.292 mPa·s
x1 = 0.0899 | – | – | 2.493 mPa·s | 2.12 mPa·s | 1.823 mPa·s | 1.587 mPa·s | 1.395 mPa·s
x1 = 0.0999 | – | 3.41 mPa·s | 2.736 mPa·s and 2.855 mPa·s | 2.311 mPa·s and 2.445 mPa·s | 1.98 mPa·s and 2.138 mPa·s | 1.718 mPa·s | 1.506 mPa·s
x1 = 0.2006 | – | 6.704 mPa·s | 5.489 mPa·s | 4.586 mPa·s | 3.907 mPa·s | – | –
x1 = 0.3009 | – | 10.27 mPa·s | 8.312 mPa·s | 6.887 mPa·s | 5.759 mPa·s | – | –
x1 = 0.4001 | – | 14.49 mPa·s | 11.54 mPa·s | 9.39 mPa·s | 7.779 mPa·s | – | –
x1 = 0.5025 | – | 19.54 mPa·s | 15.45 mPa·s | 12.42 mPa·s | 10.14 mPa·s | – | –
x1 = 0.5987 | – | 25.28 mPa·s | 19.39 mPa·s | 15.5 mPa·s | 12.54 mPa·s | – | –
x1 = 0.702 | – | 31.76 mPa·s | 24.06 mPa·s | 18.94 mPa·s | 15.12 mPa·s | – | –
x1 = 0.8038 | – | 38.27 mPa·s | 28.82 mPa·s | 22.48 mPa·s | 17.7 mPa·s | – | –
x1 = 0.8972 | – | 45.12 mPa·s | 33.44 mPa·s | 25.72 mPa·s | 20.14 mPa·s | – | –
